From patent publication US20060040980A1, “Ionophores as cancer chemotherapeutic agents” (priority 2004, published 2006)
Entries after “also recorded” stand apart in the source; their conditions may differ. Read-outs that look alike come from different tables or passages of the source.

Legend:
tumor cells [1] = assay: Modulation of CQ-mediated cell killing by anti-oxidants and zinc chelators; assay type: cell-based; conditions: added to CQ-treated cells
Excerpt: Inventors then studied the effects of the addition of zinc chelators. Since Ca^++ has a lower affinity for EDTA than Zn^++, the addition of […] it.

[2] = tested on: Raji cells (a human B-cell Burkitt lymphoma line); assay: MTS cell viability assay, Raji; assay type: cell-based; conditions: for IC50: Homo sapiens, Raji (B-cell), MTS assay, n = 3, read-out: IC50 (μM) towards human tumor cell lines; for Effect of added copper, zinc or iron on CQ's cytotoxic effects / Interaction of clioquinol and DHA in killing cells (isobologram analysis): Raji cells; for Effect of added copper, zinc or iron on CQ's cytotoxic effects: ZnCl2, CuCl2, FeCl2 premixed with 5 μM clioquinol, 72 h; for Interaction of clioquinol and DHA in killing cells (isobologram analysis): ratio of IC50s
Protocol: (§1) Cell viability was determined with the MTS assay. IC50 was calculated using nonlinear regression analysis (Prism 3.0). […] Data (n=3) are presented as means±S.E.M.
(§2) The CellTiter 96® Aqueous ONE Solution (Promega) was used to assess cellular viability via reduction of (3-(4,5-dimethylthiazol-2-yl)-5-(3carboxymethoxyphenyl)-2-(4-sulfophenyl)-2H-tetrazolium (MTS). An ELISA-based apoptosis assay kit was from Roche, and an anti-poly (ADP-ribose) polymerase (PARP) monoclonal antibody was from BIOMOL Research Laboratories Inc. Nude mice were from Animal Technology Limited. All other reagents were analytic grade.
(§3) DHL-4 cells were provided by Dr. Linda Boxer (Stanford University), A2780 cells by Dr. Stephen Howell (University of California, San Diego), SiHa cells by Dr. Doris Benbrook (University of Oklahoma). All other cells were obtained from the ATCC. Cells were routinely grown in a […], in an environment containing 5% CO2, and passed every three days. Cell viability was analyzed using the MTS assay. […] The MTS assay was performed using the protocol provided by the manufacturer. In short, 20 μL of MTS solution was added to each well, and cells were incubated at 37° C. for 1-2 h. The optical density (490 nm) of each well was then determined.
(§4) IC50 values were calculated with nonlinear regression analysis using Graphpad Prism 3.0 (Graphpad Software, Inc.).
(§5) The cells studied included human B-cell lymphoma lines (DHL-4, Raji), breast (MCF-7, MDA-MB231), ovarian (A2780), cervical (SiHa), bladder (T24), and pancreatic (Mpanc-96) cancer cells.
as §1
Inventors reasoned that the cytotoxic effects of a chelator would be overcome by an excess of the chelated metal. Inventors added increasing concentrations of copper, zinc or iron to cells treated with CQ. […] Cell viability was expressed as a percentage of untreated cells.

[3] = molecular target: purified bovine erythrocyte SOD 1 (Bos taurus, UniProt P00442); assay: SOD1 activity, xanthine oxidase/cytochrome C method, purified enzyme; conditions: purified bovine erythrocyte SOD 1, in vitro
[4] = tested on: Raji (a human B-cell lymphoma line) xenograft
Protocol: Xenograft model Nude mice (Harlan Sprague-Dawley, Indianapolis, Ind.) were maintained in accordance with the Institutional Animal Care and Use Committee (IACUC) procedures and guidelines. 10×10^6 Raji (a human B-cell lymphoma line), or 5×10^6 A2780 (a human ovarian cancer line) cells were suspended in 100 μL of phosphate buffered saline, mixed with 50% Matrigel, and implanted subcutaneously into the flanks of 5-week-old female nude mice. […] The tumor volume was assessed three times a week using calipers to measure the perpendicular diameters of the tumor, and calculated with the formula; v=l×(w)^2 (0.5), where v=tumor volume, l=length of tumor and w=width of donor (60). Animals' weights were also measured 3 times a week.
Nude mice were injected subcutaneously with Raji cells.

MDA-MB-231 (breast) = assay: MTS cell viability assay, MDA-MB-231; assay type: cell-based; conditions: Homo sapiens, read-out: IC50 (μM) of clioquinol towards human tumor cell lines, 72 h, n = 3
Excerpt: as §2, §3, §4, §5

M-panc-96 (pancreas) = assay: MTS cell viability assay, M-panc-96; assay type: cell-based; conditions: Homo sapiens, MPANC96, read-out: IC50 (μM) of clioquinol towards human tumor cell lines, 72 h, n = 3
Excerpt: as §2, §3, §4, §5

A2780 cells = assay: Cellular zinc level measurement with FluoZin-3; assay type: cell-based, human; conditions: A2780, 30 μM clioquinol, 1 h, increasing zinc
Protocol: A sensitive water-soluble salt form of a fluorescent zinc indicator was used for cellular zinc level measurement following the manufacture's protocol (FluoZin-3, Molecular Probes). A2780 (10,000/well) and Raji cells (30,000/well) were plated in a 96-well plate.
FluoZinc-3 (final concentration of 3 μM) was added and the cells were incubated for another 30 min at 37° C. After the incubation, cells were washed twice with fresh medium to remove any dye nonspecifically associated with the cell surface. Additional medium was added and the cells were incubated for a further 30 min before fluorescence measurements were commenced. The fluorescence was measured at 485nm/535nm (excitation/emission), using a Wallac 1420 Multilabel Counter (Perkin Elmer).
The zinc ionophore pyrithione was used as a positive control.

mouse brains = conditions: cited from earlier work
albumin = albumin (Homo sapiens, UniProt P02768); conditions: read-out: Affinity of binding to albumin; cited from earlier work
human cancer cell lines = assay: Viability of eight human cancer cell lines (overall statement); assay type: cell-based
Excerpt: as §2, §3, §4, §5

[5] = cited from earlier work
animals = conditions: high doses; cited from earlier work
[6] = tested on: mouse model of Alzheimer's disease; conditions: cited from earlier work
SiHa (cervical) = assay: MTS cell viability assay, SiHa; assay type: cell-based; conditions: Homo sapiens, read-out: IC50 (μM) of clioquinol towards human tumor cell lines, 72 h, n = 3
Excerpt: as §2, §3, §4, §5

A2780 (ovarian) = assay: MTS cell viability assay, A2780; assay type: cell-based, human
Excerpt: as §2, §3, §4, §5

tumor cells [7] = assay: Lipid peroxidation (thiobarbituric acid reactive substances) in CQ-treated tumor cells; assay type: cell-based; conditions: CQ treatment of tumor cells
[8] = tested on: patients with Alzheimer's disease; conditions: cited from earlier work
[9] = tested on: A2780 (a human ovarian cancer line) xenograft; assay: A2780 xenograft in nude mice; assay type: in vivo; conditions: 28 mg/kg, 5 days a week
Protocol: Control animals were given Intralipid, without Cloquinol. […] Animals' weights were also measured 3 times a week.
In a separate experiment, nude mice were injected with the ovarian cancer cell line, A2780 and treated similarly. Mice were killed when the tumor reached 10% of their body weight.
Tumor size was calculated and expressed as […] .

Raji cells = assay: Apoptosis ELISA (cytoplasmic histone-associated DNA fragments) and PARP/caspase-3 Western blot; assay type: cell-based, human; conditions: 24 h, PARP cleavage
Protocol: Western blot analysis was performed as previously described (57-59). Briefly, cells were lysed in a lysis buffer containing 50 MM Tris, pH 7.4, 50 mM NaCl, 0.5% NP-40, 50 mM NaF, 1 mM Na3VO4, 1 mM phenylmethylsulfonyl fluoride, 25 μg/ml leupeptin, and 25 μg/ml aprotinin. The lysates were centrifuged at 15,004×g for 15 min and the supernatants were collected for protein concentration determination, SDS-PAGE, and western blot analysis with specific antibodies, as described.
An ELISA-based kit (Roche Diagnostics Coup., Ind.) was used to quantitatively measure cytoplasmic histone-associated DNA fragments (mononucleosomes and oligonucleosomes), a measure of apoptosis, according to the manufacturer's instructions.
Cellular extracts were analyzed using an ELISA-based assay (Roche Diagnostics Corp., Indianapolis, Ind.) that quantifies release into the cytoplasm of histone-associated DNA fragments (mononucleosomes and oligonucleosomes), a measure of apoptosis. In addition, the lysates were subjected to SDS-PAGE followed by Western blotting using an anti-poly (ADP-ribose) polymerase (PARP) monoclonal antibody (clone C-2-10) to detect PARP cleavage, a sign of caspase-dependent apoptosis.
Cell lysates were prepared and apoptosis determined using an ELISA that quantified cytoplasmic DNA-histone complexes. […]

DHL-4 (B-cell) = assay: MTS cell viability assay, DHL-4; assay type: cell-based; conditions: Homo sapiens, read-out: IC50 (μM) of clioquinol towards human tumor cell lines, 72 h, n = 3
Excerpt: as §2, §3, §4, §5

[10] = tested on: immortalized endothelial cell line (EAhy.926); assay: Endothelial cell tube formation assay on Matrigel; assay type: cell-based; conditions: EAhy.926 on Matrigel
Protocol: An immortalized endothelial cell line (EAhy.926) was plated on Matrigel at a density of 15,000 per well in the absence or presence of the drugs indicated overnight at 37° C. Branch formation was used as a measure of tube formation. Each value was determined by averaging the number of branches per field (250×) in 3 representative fields. The final bFGF concentration was 5 ng/mL.

T24 (Bladder) = assay: MTS cell viability assay, T24; assay type: cell-based; conditions: Homo sapiens, read-out: IC50 (μM) of clioquinol towards human tumor cell lines, 72 h, n = 3
Excerpt: as §2, §3, §4, §5

MCF-7 (breast) = assay: MTS cell viability assay, MCF-7; assay type: cell-based; conditions: Homo sapiens, MCF7, read-out: IC50 (μM) of clioquinol towards human tumor cell lines, 72 h, n = 3
Excerpt: as §2, §3, §4, §5

[11] = oral, 750 mg a day, Alzheimer's trial

Sequence of albumin (P02768 25-609): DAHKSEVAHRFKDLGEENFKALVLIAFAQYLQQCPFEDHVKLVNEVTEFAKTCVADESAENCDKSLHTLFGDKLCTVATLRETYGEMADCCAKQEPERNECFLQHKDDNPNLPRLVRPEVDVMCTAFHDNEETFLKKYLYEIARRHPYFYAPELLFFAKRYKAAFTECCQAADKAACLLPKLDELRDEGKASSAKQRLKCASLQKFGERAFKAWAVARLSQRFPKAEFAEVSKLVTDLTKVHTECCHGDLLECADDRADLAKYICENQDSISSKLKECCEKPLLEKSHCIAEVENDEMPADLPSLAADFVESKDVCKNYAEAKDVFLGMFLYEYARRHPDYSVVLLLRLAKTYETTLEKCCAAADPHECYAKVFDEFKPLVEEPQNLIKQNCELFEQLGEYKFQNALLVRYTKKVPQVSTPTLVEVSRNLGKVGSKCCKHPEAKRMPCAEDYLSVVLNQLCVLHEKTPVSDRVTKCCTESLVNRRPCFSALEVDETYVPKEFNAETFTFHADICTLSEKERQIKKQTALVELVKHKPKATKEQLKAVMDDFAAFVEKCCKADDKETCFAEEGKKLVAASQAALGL
Sequence of purified bovine erythrocyte SOD 1 (P00442 whole entry): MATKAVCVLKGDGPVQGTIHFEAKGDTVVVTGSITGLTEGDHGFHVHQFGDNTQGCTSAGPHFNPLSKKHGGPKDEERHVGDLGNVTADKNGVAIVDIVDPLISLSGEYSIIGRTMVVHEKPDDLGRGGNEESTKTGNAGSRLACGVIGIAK

For `O=C(O)CN(CCN(CC(=O)O)CC(=O)O)CC(=O)O.[Zn]` [ZnEDTA], the “Effect of zinc chelators on CQ-mediated cell killing” value (tumor cells [1]) was “not”.

In the case of `Cc1c(C)c2c(c(C)c1O)CCC(C)(C(=O)O)O2` (stereo not drawn) [Trolox], the “Protection of cells against CQ by anti-oxidants” value (tumor cells [1]) is reported as “do not protect”.

For vitamin E, the “Protection of cells against CQ by anti-oxidants” value (tumor cells [1]) was “do not protect”.

`CC/C=C\C/C=C\C/C=C\C/C=C\C/C=C\C/C=C\CCC(=O)O` [DHA, docosahexaenoic acid] showed an IC50 [2] of 85 µM.

In the case of `O=C([O-])CN(CCN(CC(=O)[O-])CC(=O)[O-])CC(=O)[O-].[Ca+2].[Na+].[Na+]` [CaEDTA], the “Effect of zinc chelators on CQ-mediated cell killing” value (tumor cells [1]) is reported as “decrease in CQ-mediated cell killing”.

With `Oc1c(I)cc(Cl)c2cccnc12` [clioquinol, 5-chloro-7-iodo-8-hydroxyquinoline] the “Effect on purified SOD 1” value [3] was “inhibition”, the Tumor growth ([4]; Raji xenograft, 28 mg/kg ip, 5 days a week) was “inhibition of tumor growth” and the Signs of toxicity ([4]; mouse, in vivo, ip, 28 mg/kg) was “No animals exhibited signs of toxicity”. For the same molecule, the IC50 (MDA-MB-231 (breast)) was 19.9 µM, the IC50 (M-panc-96 (pancreas)) was 23.6 µM and the “Zinc ionophore activity (fluorescent zinc indicator)” value (A2780 cells) was “is a zinc ionophore”. For the same molecule, the “Zinc ionophore activity (fluorescent zinc indicator)” value (A2780 cells; listed as CQ) was “is indeed an ionophore”, the “Accumulation of vitamin B12 in the brain” value (mouse brains) was “decreased” and the Kd (albumin) was 0.01 µM. For the same molecule, the IC50 (human cancer cell lines; eight human cancer cell lines, 72 h, read-out: IC50s, range over all cell lines tested) was 10 to 40 µM, the “IC50s in killing human cancer cells (in words)” value (human cancer cell lines; human cancer cells) was “low micromolar range” and the “Absorbed from the skin” value ([5]; man, in 12 hours) was 40%. For the same molecule, the “Excreted in the urine after absorption from the GI tract” value ([5]; man, in 72 hours) was 25%, the Serum half-life ([5]; man) was “about 12 hours” and the Trough blood levels [5, 11] was “about 25 μM”. For the same molecule, the “Trough, steady-state blood levels” value [5, 11] was 7.6 µg/mL, the Trough blood levels ([5]; oral, 750 mg a day, Alzheimer's trial, listed as CQ) was 25 µM and the “Neurotoxicity in animal studies” value (animals) was “can induce neurotoxicity”. For the same molecule, the Dose administered safely ([6]; mice) was 30 mg/kg/day, the “Sedimentable amyloid in the brains” value ([6]; mouse model of Alzheimer's disease) was “decrease” and the IC50 (SiHa (cervical)) was 38.8 µM. For the same molecule, the IC50 [2] was 12.4 µM, the “Effect of added copper, zinc or iron on CQ's cytotoxic effects” value [2] was “potentiation” and the “Effect of added copper, zinc or iron on CQ's cytotoxic effects” value ([2]; listed as CQ) was “potentiated”. For the same molecule, the “Interaction of clioquinol and DHA in killing cells (isobologram analysis)” value [2] was “potentiate DHA; also recorded: synergy”, the “Interaction of clioquinol and DHA in killing cells (isobologram analysis)” value ([2]; listed as CQ) was “synergism” and the “Exposure time sufficient for full cytotoxicity” value (A2780 (ovarian); A2780 cells, time-course studies) was 8 h. For the same molecule, the IC50 (A2780 (ovarian); Homo sapiens, read-out: IC50 (μM) of clioquinol towards human tumor cell lines, A2780 (ovarian), 72 h, n = 3) was 14.2 µM, the “Lipid peroxidation (thiobarbituric acid reactive substances)” value (tumor cells [7]) was “does not lead to increased lipid peroxidation” and the Neurotoxicity in patients ([8]; Australia, 36 patients, 250, 500, 750 mg a day over nine months with vitamin B12) was “No neurotoxicity”. The Toxicity in patients ([8]; Sweden, 10 or 80 mg a day for 21 days) was “without experiencing toxicity”, the “Survival of treated mice” value [9] was “prolonged survival” and the Tumor growth [9] was “inhibited tumor growth”. For the same molecule, the Induction of apoptosis (Raji cells) was “induces apoptosis”, the IC50 (DHL-4 (B-cell)) was 6.7 µM and the “Anti-angiogenic effect (cell survival and tube branches)” value [10] was “anti-angiogenic effect”. The “Endothelial cell tube formation” value ([10]; bFGF 5 ng/mL, overnight) was “inhibited in a dose dependent manner”, the IC50 (T24 (Bladder)) was 20 µM and the IC50 (MCF-7 (breast)) was 29.7 µM.

With `[O-][n+]1ccccc1S` [pyrithione, 2-mercaptopyridine 1-oxide] the “Anti-angiogenic effect (cell survival and tube branches)” value [10] was “anti-angiogenic effect”.
